Bounds are passed on as bounds.

Drawing on patent US5409950A, “Cyclic ketal derivatives” (Glaxo Group Limited, priority 1991, dated 1995), this text covers IC50 for 17 compounds.

The target in this test is T1, squalene synthase (Rattus norvegicus, UniProt Q02769).
T1 construct: incubating rat liver homogenate with various concentrations of the test compound; from tissue; host or cells: rat liver homogenate
T1 sequence (Q02769 1-416): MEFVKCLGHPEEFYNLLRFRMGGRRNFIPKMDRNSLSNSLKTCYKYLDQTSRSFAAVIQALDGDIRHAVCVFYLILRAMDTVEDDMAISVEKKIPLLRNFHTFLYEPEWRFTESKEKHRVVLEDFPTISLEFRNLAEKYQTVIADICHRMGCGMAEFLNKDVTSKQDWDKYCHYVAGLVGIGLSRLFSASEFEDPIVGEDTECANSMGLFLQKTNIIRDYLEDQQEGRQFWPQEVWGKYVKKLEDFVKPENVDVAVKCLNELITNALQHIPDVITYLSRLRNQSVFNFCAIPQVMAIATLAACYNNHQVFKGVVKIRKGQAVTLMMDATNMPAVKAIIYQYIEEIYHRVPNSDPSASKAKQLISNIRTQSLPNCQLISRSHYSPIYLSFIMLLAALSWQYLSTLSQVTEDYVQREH
Put plainly: Inhibition of squalene synthase in rat liver homogenate. As to conditions: [2-14C] farnesylpyrophosphate as substrate, 30 minute assay, read-out: IC50 (concentration of compound giving 50% inhibition of [14C] squalene production). The class given is biochemical. Here is the method:
Acta, Volume 877, 50-60 (1986) and modified to include measurement of cholesterol by high performance liquid chromatography (h.p.l.c.).
[^14 C] Squalene was separated from unreacted substrate on thin layer chromatography plates and determined by liquid scintillation counting. Inhibition of squalene synthase was quantified by incubating rat liver homogenate with various concentrations of the test compound in the presence of [2-^14 C] farnesylpyrophosphate. The concentration of compound giving 50% inhibition of [^14 C] squalene production in a 30 minute assay was taken as the IC50 value.

With `CC[C@H](C)C[C@H](C)/C=C/C(=O)O[C@@H]1[C@@H](O)[C@@]2(CC/C(C)=C/C(C)Cc3ccccc3)O[C@H](C(=O)O)[C@@](O)(C(=O)O)[C@]1(C(=O)O)O2` (some centres unmarked) [Compound A1], the IC50 was under 100 nM.
For the compound `C=C(CC[C@]12O[C@H](C(=O)O)[C@@](O)(C(=O)O)[C@](C(=O)O)(O1)[C@H](OC(=O)/C=C/[C@@H](C)C[C@@H](C)CC)[C@H]2O)C(NC(C)=O)C(C)Cc1ccccc1` (some centres unmarked) [Compound B1], the IC50 was under 100 nM.
In the case of `C=C(CC[C@]12O[C@H](C(=O)O)[C@@](O)(C(=O)O)[C@](C(=O)O)(O1)[C@H](OC(=O)/C=C/[C@@H](C)C[C@@H](C)CC)[C@H]2O)[C@@H](O)[C@H](C)Cc1ccccc1` [Compound B, [1S-[1α(4R*,5S*),3α,4β,5α,6α(2E,4R*,6R*),7 β9]1-(4-hydroxy-5-methyl-3-methylene-6-phenylhexyl)-4,6,7-trihydroxy-2,8-dioxabicyclo[3.2.1]octane-3,4,5-tricarboxylic acid, 6-(4,6-dimethyl-2-octenoate)] it was under 100 nM.
In the case of `C=C(CC[C@]12O[C@H](C(=O)O)[C@@](O)(C(=O)O)[C@](C(=O)O)(O1)[C@H](OC(=O)/C=C/C(C)(O)CC(C)CC)[C@H]2O)[C@@H](O)[C@H](C)Cc1ccccc1` (some centres unmarked) [Compound C1] it was under 100 nM.
With `C=C(CC[C@]12O[C@H](C(=O)OC)[C@@](O)(C(=O)O)[C@](C(=O)O)(O1)[C@H](OC(=O)/C=C/[C@@H](C)C[C@@H](C)CC)[C@H]2O)[C@@H](O)[C@H](C)Cc1ccccc1` [Compound E, [1S-[1α(4R*,5S*),3α,4β,5α,6α(2E,4R*,6R*),7β]]1-(4-hydroxy-5-methyl-3-methylene-6-phenylhexyl)-4,6,7-trihydroxy-2,8-dioxabicyclo[3.2.1]octane-3,4,5-tricarboxylic acid, 6-(4,6-dimethyl-2-octenoate), 3-methyl ester], the IC50 was under 100 nM.
For `C=C(CC[C@]12O[C@H](C(=O)O)[C@@](O)(C(=O)O)[C@](C(=O)O)(O1)[C@H](OC(=O)/C=C/C(C)CCCC)[C@H]2O)[C@@H](OC(C)=O)[C@H](C)Cc1ccccc1` (some centres unmarked) [Compound G], the IC50 is under 100 nM.
Take `C=C(CC[C@]12O[C@H](C(=O)O)[C@@](O)(C(=O)O)[C@](C(=O)O)(O1)[C@H](OC(=O)/C=C/C(C)=C/C(C)CC)[C@H]2O)[C@@H](OC(C)=O)[C@H](C)Cc1ccccc1` (some centres unmarked) [Compound H]: the IC50 was under 100 nM.
In the case of `C=C(CC[C@]12O[C@H](C(=O)O)[C@@](O)(C(=O)O)[C@](C(=O)O)(O1)[C@H](OC(=O)CC(O)C(C)CC(C)CC)[C@H]2O)[C@@H](OC(C)=O)[C@H](C)Cc1ccccc1` (some centres unmarked) [Compound I] it was under 100 nM; in that of `C=C(CC[C@]12O[C@H](C(=O)O)[C@@](O)(C(=O)O)[C@](C(=O)O)(O1)[C@H](OC(=O)/C=C/C(C)(O)CC(C)CC)[C@H]2O)[C@@H](OC(C)=O)[C@H](C)Cc1ccccc1` (some centres unmarked) [Compound K], under 100 nM.
In the case of `C=C(CC[C@]12O[C@H](C(=O)O)[C@@](O)(C(=O)O)[C@](C(=O)O)(O1)[C@H](OC(=O)CC(O)CCC(C)CC)[C@H]2O)[C@@H](OC(C)=O)[C@H](C)Cc1ccccc1` (some centres unmarked) [Compound L] it was under 100 nM.
In the case of `C=C(CC[C@]12O[C@H](C(=O)O)[C@@](O)(C(=O)O)[C@](C(=O)O)(O1)[C@H](OC(=O)CC(O)C(C)CC(C)CC)[C@H]2O)[C@@H](O)[C@H](C)Cc1ccccc1` (some centres unmarked) [Compound M] it was under 100 nM.
As for `C=C(CC[C@]12O[C@H](C(=O)O)[C@@](O)(C(=O)O)[C@](C(=O)O)(O1)[C@H](OC(=O)/C=C/[C@@H](C)C[C@@H](C)CC)[C@H]2O)C(O)C(CO)Cc1ccccc1` (some centres unmarked) [Compound N], the IC50 is under 100 nM.
In the case of `C=C(CC[C@@]12C[C@@H](OC(=O)/C=C/[C@@H](C)C[C@@H](C)CC)[C@@](C(=O)O)(O1)[C@](O)(C(=O)O)[C@@H](C(=O)O)O2)[C@@H](OC(C)=O)[C@H](C)Cc1ccccc1` [Compound O, [1S-[1α(4R*,5S*),3α,4β,5α,6α(2E,4R*,6R*)]]1-4-acetyloxy-5-methyl-3-methylene-6-phenylhexyl)-4,6-dihydroxy-2,8-dioxabicyclo[3.2.1]octane-3,4,5-tricarboxylic acid, 6-(4,6-dimethyl-2-octenoate)] it was under 100 nM; in that of `CC[C@H](C)C[C@H](C)/C=C/C(=O)O[C@@H]1[C@@H](O)[C@@]2(CC/C(=C\C(C)Cc3ccccc3)CNC(C)=O)O[C@H](C(=O)O)[C@@](O)(C(=O)O)[C@]1(C(=O)O)O2` (some centres unmarked) [Compound T], under 100 nM.
In the case of `C=C(CC[C@]12O[C@H](C(=O)O)[C@@](O)(C(=O)O)[C@](C(=O)O)(O1)[C@H](OC(=O)CCC(C)CC(C)CC)[C@H]2O)[C@@H](OC(C)=O)[C@H](C)Cc1ccccc1` (some centres unmarked) [Compound U] it was under 100 nM; in that of `C=C(CC[C@@]12O[C@H](C(=O)O)[C@@](O)(C(=O)O)[C@@](C(=O)O)(C[C@H]1O)O2)[C@@H](OC(C)=O)[C@H](C)Cc1ccccc1` [Compound V, [1S-[1α(4R*,5S*),3α,4β,5α,7β]]1-(4-acetyloxy-5-methyl-3-methylene-6-phenylhexyl)-4,7-dihydroxy-2,8-dioxabicyclo[3.2.1]octane-3,4,5-tricarboxylic acid], under 100 nM; in that of `C=C(CC[C@]12O[C@H](C(=O)O)[C@@](O)(C(=O)O)[C@](C(=O)O)(O1)[C@H](OC(=O)CC(O)CCC(C)CC)[C@H]2O)[C@@H](O)[C@H](C)Cc1ccccc1` (some centres unmarked) [Compound W], under 100 nM.
